Laboratory results: patent publication US5908868A, “Retinol derivatives useful for enhancing immune response” (priority 1995, dated 1999)

Legend:
[1] = test system: 5/2 cells; type: in vitro ADME, human
Procedure: 5/2 cells (10^6 cells in 10 ml HB 101 medium) were incubated with all-trans-[^3 H] retinol (10 uCe/ml). After 24 hours, retinoids were extracted from the washed cell pellet and unlabeled marker retinoids were added. The crude extract was loaded on an analytical reversed-phase C-18 column. Retinoids were eluted with the shown linear gradient of water/methanol/chloroform. The flow rate was 0.5 ml/min. DPM were determined with an on line scintillation counter. Reference retinoids were the all-trans forms of 0: 3,4-didehydroretinoic acid, 1: all-trans-retinoic acid, 2: 3,4-didehydroretinol, 3: retinol, 4: retinyl linoleate, 5: retinyl oleate, 6: retinyl palmitate. Shaded area corresponds to P3. Cross-hatched area corresponds to P1.
Lymphoblastoid 5/2 cells grown in the presence of 10^-6 M retinol were spiked with ^3 H-labeled retinol. After 16 hours the cell pellet was delipidated according to the method of McLean et al. and separated on a reversed phase C-18 HPLC column (FIG. 7). […] Three peaks, P1, P2 and P3, could not be immediately identified. One peak eluting at 36-39 minutes (corresponding 83% methanol 7% water) provisionally called P3, but now known as 14HRR, was unusual because unlike P1 eluting at 31-34 minutes, its relative amount increased when the retinol concentration was lowered or when retinol was given to the cells bound to RBP. […]

[2] = test system: 5/2 lymphoblastoid cells; type: in vitro ADME, human
Procedure: FIG. 24. Kinetics of biosynthesis of 14HRR in lymphoblastoid cells. 50 ml ITLB 600,000 5/2 cells/ml were incubated with 20 μCi of ^3 H retinol in serum-free ITLB medium. Cell pellets corresponding to 10 ml of culture were delipidated at 20 minute intervals and the corresponding lipid fraction separated on an analytical C18 reversed-phase column (see FIG. 20). Radioactive peaks were identified by coelution with cold reference retinoids.
The kinetics of biosynthesis of 13,14DHR and 14HRR were determined in 5/2 lymphoblastoid cells. These cells were cultured in the presence of ^3 H retinol for different time periods, and the cell-associated retinoids extracted as referenced above. They were then chromatographed on an analytical C18 column as described in FIG. 20. The sizes of peaks emerging at 16.8 minutes, representing 13,14DHR, and 18.5 minutes, representing 14HRR, were measured and plotted in the bar diagram of FIG. 24.

[3] = test system: ERLD; experiment: Retinol metabolism; type: in vitro ADME
Procedure: (§1) FBS. The FBS was preincubated at room temperature with 14.4 uCi [^3 H
(§2) retinol (NEN) for 4 h. The cell pellet was washed twice with PBS. The
(§3) retinoid were extracted according to MClean et al. 90 and separated on an
(§4) analytical c18 reverse phase column according to FIG. 7. The DPM wer
(§5) determined using an online scintillation counter.

[4] = test system: RPMI; experiment: Retinol metabolism; type: in vitro ADME; details: RPMI leukemia (ALL)
Procedure: as §1, §2, §3, §4, §5

[5] = test system: SK3886; experiment: Retinol metabolism; type: in vitro ADME
Procedure: as §1, §2, §3, §4, §5

[6] = Reversion to retinol; type: in vitro ADME

## CC1=C(/C=C/C(C)=C/C=C/C(C)=C/CO)C(C)(C)CCC1 [retinol, all-trans retinol]
[1]
  retinoids identified after 3H-retinol: 13-cis retinol, all-trans retinol, and several retinyl esters were identified
  retinoids not detected after 3H-retinol: Retinoic acid, 3,4-didehydroretinol acid as well as 3,4-didehydroretinol were not detectable
[2]
  order of metabolite production: production of 13,14DHR precedes that of 14HRR
[3]
  Total cts.: 2.8 × 10^5 cts.
[3]; overnight
  Ester (% of taken up retinol): 20%
  P3 (% of taken up retinol): 9%
  Retinol (% of taken up retinol): 63%
[4]
  Total cts.: 1.2 × 10^5 cts.
[4]; overnight
  Ester (% of taken up retinol): 38%
  P3 (% of taken up retinol): 2%
  Retinol (% of taken up retinol): 58%
[5]; SK3886
  Total cts.: 4.7 × 10^5 cts.
[5]; SK3886, overnight
  Ester (% of taken up retinol): 2%
  P3 (% of taken up retinol): 3%
  Retinol (% of taken up retinol): 92%

## CC(C=CC=C(C)C(O)CO)=CC=C1C(C)=CCCC1(C)C (stereo not shown) [14HRR, 14-hydroxy-4,14-retro-retinol]
[6]
  reversion to retinol: does not revert to retinol
